This is an account of results in PubChem BioAssay (NCI).

SMILES strings stand for the structures.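 Each compound was tested at five concentrations against cells in 96-well plates for 48 hours. Abbreviation: GI50, concentration required for 50% inhibition of growth. TGI marks complete inhibition of growth.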

Some test systems named below: M14 melanoma; SNB-75 CNS; UACC-257 melanoma; SW-620 colon; OVCAR-8 ovarian; HOP-92 NSCLC; K-562 leukemia; UACC-62 melanoma; NCI/ADR-RES ovarian.
Common to all, as to assay: NCI-60 cell line screen, 48 h

With `CCC[CH2][Sn]1([CH2]CCC)[O]C(=O)c2cccnc2[S]1`, the GI50 in the assay with M14 melanoma was 3.22 µM; in the assay with SNB-75 CNS, 2.54 µM; in the assay with UACC-257 melanoma it was 2.64 µM; in the assay with SW-620 colon it was 1.88 µM; in the assay on OVCAR-8 ovarian, 4.04 µM; in the assay with HOP-92 NSCLC it was 3.37 µM. Moreover, the GI50 in the assay on K-562 leukemia was 1.65 µM; in the assay with UACC-62 melanoma, 1.87 µM. The TGI in the assay with M14 melanoma is 10.1 µM; in the assay with SNB-75 CNS, 7.82 µM; in the assay on UACC-257 melanoma, 6.97 µM; in the assay with SW-620 colon it was 4.31 µM; in the assay with OVCAR-8 ovarian, 14.5 µM; in the assay on HOP-92 NSCLC it was 12.1 µM. In addition, the values for the TGI in the assay on K-562 leukemia and in the assay with UACC-62 melanoma were 5.48 µM and 5.53 µM, respectively.

On to `O=C(CC1(O)C(=O)Nc2ccc(Br)cc21)c1cccc([N+](=O)[O-])c1` (stereo unspecified), for which the TGI in the assay on M14 melanoma was > 100 µM; with SNB-75 CNS, 97.2 µM; in the assay on UACC-257 melanoma it was 78.6 µM; in the assay on SW-620 colon it was > 100 µM; in the assay with OVCAR-8 ovarian, > 100 µM; in the assay on HOP-92 NSCLC it was 74.6 µM. Besides, in the assay on K-562 leukemia, the TGI was > 100 µM.

For `BrC(/C=N/Nc1nnc(-c2ccccc2)c(-c2ccccc2)n1)C(Br)c1ccccc1` (stereo unspecified), the TGI in the assay with M14 melanoma was 51.8 µM; with SNB-75 CNS it was 78.6 µM; in the assay on UACC-257 melanoma, > 100 µM; in the assay with SW-620 colon, > 100 µM; with OVCAR-8 ovarian, > 100 µM; in the assay on HOP-92 NSCLC, 64.5 µM. The TGI in the assay with K-562 leukemia is > 100 µM; with UACC-62 melanoma it was 53.5 µM.

In the case of `CCCCP1(=O)C=CC(Cl)=C(C)C1` (stereo unspecified), the TGI in the assay on M14 melanoma, in the assay with UACC-257 melanoma, with SW-620 colon, in the assay on OVCAR-8 ovarian, in the assay on HOP-92 NSCLC and with K-562 leukemia was > 100 µM throughout. Further, the TGI in the assay on UACC-62 melanoma was > 100 µM.

Consider `CCN(CC)CCCC(C)Nc1ccnc2cc(OC)ccc12` (stereo unspecified), for which the GI50 in the assay on M14 melanoma is 16.7 µM; in the assay with UACC-257 melanoma, 18.2 µM; with SW-620 colon, 23.7 µM; in the assay with NCI/ADR-RES ovarian, 91.1 µM; in the assay with OVCAR-8 ovarian it was 24.3 µM; with HOP-92 NSCLC, 9.25 µM. The GI50 in the assay on K-562 leukemia was 33.7 µM; in the assay on UACC-62 melanoma, 19.5 µM. Moreover, the TGI with M14 melanoma is 30.4 µM; with UACC-257 melanoma, 34.2 µM; in the assay with SW-620 colon, 58.2 µM; with NCI/ADR-RES ovarian, > 100 µM; in the assay on OVCAR-8 ovarian it was 71.1 µM; in the assay on HOP-92 NSCLC, 26.7 µM. For the same molecule, the TGI is > 100 µM in the assay with K-562 leukemia and 37.7 µM with UACC-62 melanoma.

As to `Cc1nc2ccccc2c(=O)n1/N=C(\N=Nc1ccc(Cl)cc1)c1ccc(N(C)C)cc1`, the TGI with SW-620 colon, with OVCAR-8 ovarian, with K-562 leukemia and with UACC-62 melanoma was > 100 µM each time.

As to `O=C1C(=C2C(=O)c3ccccc3[N+]2=O)N([O-])c2ccccc21`, the TGI in the assay on M14 melanoma came to 43.7 µM; in the assay on SNB-75 CNS, 83.8 µM; with SW-620 colon, 47.5 µM; in the assay with OVCAR-8 ovarian, 50.4 µM; with K-562 leukemia, 50.1 µM.

Turning to `COc1ccc(Cc2c3cc(OC)c(OC)cc3cc[n+]2C)cc1`, the TGI with M14 melanoma was > 28.1 µM; in the assay with SNB-75 CNS, 34.6 µM; in the assay on UACC-257 melanoma it was > 58.4 µM; in the assay on SW-620 colon it was > 100 µM; with OVCAR-8 ovarian, > 48.6 µM; in the assay with HOP-92 NSCLC, 58.7 µM. Moreover, the results for the TGI in the assay on K-562 leukemia and in the assay with UACC-62 melanoma were > 100 µM and > 50 µM, respectively.

As to `N#CC1(C2CC(=O)N(c3ccccc3)C2=O)CCCCC1=O` (stereo unspecified), the TGI in the assay with M14 melanoma, in the assay on SNB-75 CNS, in the assay with SW-620 colon, in the assay with OVCAR-8 ovarian, with K-562 leukemia and with UACC-62 melanoma was > 100 µM in each case.

As for `CC[C@H]1CNC(=O)CC1CC(=O)OC` (stereo partly specified), the TGI in the assay with M14 melanoma, in the assay with SNB-75 CNS, with UACC-257 melanoma, with SW-620 colon, with OVCAR-8 ovarian and with UACC-62 melanoma was > 100 µM each time.

Turning to `C#CC[C@]12CC(=O)CC[C@H]1CC1(C2)OCCO1`, the TGI in the assay with M14 melanoma, with SNB-75 CNS, in the assay on UACC-257 melanoma, in the assay with SW-620 colon, in the assay with OVCAR-8 ovarian and with K-562 leukemia was > 100 µM each time. In the assay on UACC-62 melanoma, the TGI is > 100 µM.

Turning to `CC(=O)NNc1nc(C)c(C(=O)NNC(=O)C(=O)Nc2ccc(C)cc2[N+](=O)[O-])s1`, the TGI in the assay with M14 melanoma, with SNB-75 CNS, in the assay on UACC-257 melanoma, with SW-620 colon, in the assay on OVCAR-8 ovarian and with HOP-92 NSCLC was > 100 µM each time. Also, the TGI in the assay on K-562 leukemia and with UACC-62 melanoma was > 100 µM each time.

Consider `Cc1cc(Br)ccc1N=NC1C(=O)ON=C1c1ccccc1` (stereo unspecified), for which the TGI in the assay with M14 melanoma, in the assay with SNB-75 CNS, in the assay with UACC-257 melanoma, with SW-620 colon, in the assay on OVCAR-8 ovarian and with HOP-92 NSCLC was > 100 µM each time. The TGI in the assay with K-562 leukemia and with UACC-62 melanoma was > 100 µM in each case.

Take `CC1(C)OC2OC(/C=C/[N+](=O)[O-])C3OC(C)(C)OC3C2O1` (stereo unspecified): the TGI in the assay with M14 melanoma came out at 27.3 µM; in the assay on SNB-75 CNS, 34.8 µM; in the assay on UACC-257 melanoma, 20.7 µM; in the assay with SW-620 colon it was 9.46 µM; with OVCAR-8 ovarian it was 40.9 µM; in the assay with HOP-92 NSCLC, 19.6 µM. For the same molecule, the figures for the TGI with K-562 leukemia and in the assay with UACC-62 melanoma were 27.5 µM and 28.6 µM, respectively.

As to `CC1CC(=O)C(CC(=O)O)[C@H]1C(C(=O)C(=O)Nc1cc(Cl)ccc1Cl)[N+](=O)[O-]` (stereo partly specified), the TGI in the assay on SNB-75 CNS, with SW-620 colon, in the assay with OVCAR-8 ovarian, in the assay with HOP-92 NSCLC, with K-562 leukemia and in the assay with UACC-62 melanoma was > 100 µM in each case.

Take `C[C@H](O)CCC(=O)c1ccoc1`: the TGI with M14 melanoma, in the assay with SNB-75 CNS, with UACC-257 melanoma, in the assay on SW-620 colon, in the assay with OVCAR-8 ovarian and in the assay on HOP-92 NSCLC was > 100 µM throughout. For the same molecule, the TGI in the assay on K-562 leukemia and in the assay with UACC-62 melanoma was > 100 µM each time.

On to `CCc1cccc(CC)c1NC1=CC(=O)C(=O)c2ccccc21`, for which the TGI in the assay with M14 melanoma is 27.2 µM; in the assay on SNB-75 CNS it was 49.3 µM; in the assay on UACC-257 melanoma, 28.6 µM; with SW-620 colon, 31.7 µM; with OVCAR-8 ovarian it was 36.7 µM; with HOP-92 NSCLC it was 29.6 µM. The values for the TGI with K-562 leukemia and with UACC-62 melanoma were > 100 µM and 30.1 µM, respectively.
